# Measurements reported in PubChem BioAssay AID489006 (Sanford-Burnham Center for Chemical Genomics, 2010).
# Activity calls are given as the source filed them. How the calls were made is not given here.
# System: Jurkat NF-kB reporter, luminescence
# Test: NF-kB reporter inhibition in Jurkat cells, dose response, selectivity assay for B-cell receptor NF-kB inhibitor project, cell-based, luminescence (AID 489006)
row,SMILES,IC50
1,CC(C)(C)c1ccc(-c2noc(CCC(=O)NCC3CCCO3)n2)cc1 (stereo unspecified),0.23 µM
2,O=C1NC[C@H](c2ccccc2)OC(=O)[C@@H](Cc2ccc(F)cc2)C/C=C\C[C@H]1CC(=O)N(CCO)Cc1ccccc1,11.8 µM
3,COc1cc(/C=N/Nc2nc(Nc3ccccc3)nc(N3CCOCC3)n2)ccc1OC(=O)c1ccco1,> 80 µM (inactive)
4,CCn1c(=O)cc(SCC(=O)N2CCC(C)CC2)c2ccccc21,> 80 µM (inactive)
5,Cc1c(CCC(=O)N2CCC(C(=O)O)(c3ccccc3)CC2)c(=O)oc2cc3oc4c(c3cc12)CCCC4,4.93 µM
6,CSC1CCCCC1(O)CSc1nc2c(cc1C#N)CCCC2 (stereo unspecified),> 80 µM (inactive)
7,COc1ccc(-c2noc(N3CCC(C(=O)Nc4cccc(OC)c4)CC3)n2)cc1,> 80 µM (inactive)
8,COc1ccc(S(=O)(=O)Nc2cc3c(C(C)=O)c(C)oc3c3ccccc23)cc1,> 80 µM (inactive)
9,O=C(Oc1cccc(/C=N/Nc2nc(Nc3ccccc3)nc(N3CCOCC3)n2)c1)c1ccco1,> 80 µM (inactive)
10,COc1cc(C2C(C#N)=C(N)Oc3cc(N)ccc32)cc(OC)c1OC (stereo unspecified),> 80 µM (inactive)
11,CCC(=O)N1c2ccccc2C(N(C(C)=O)c2ccccc2)CC1C (stereo unspecified),> 80 µM (inactive)
12,COc1ccc(-c2ccc(OC)c([C@H]3[C@H]4C=CC[C@@H](C)[C@@H]4C(=O)N3Cc3ccccc3)c2)cc1,35.7 µM (inactive)
13,COc1ccc(-c2ccc(N(C)C)cc2)cc1[C@H]1[C@H]2C=CC[C@@H](C)[C@@H]2C(=O)N1Cc1ccccc1,> 80 µM (inactive)
14,Cc1cc(OCC(=O)NC2CC2)c2c(C)c(C)c(=O)oc2c1,> 80 µM (inactive)
15,O=S(=O)(NCc1ccncc1)c1ccc(Br)s1,> 80 µM (inactive)
16,CN1CCN(C(=O)c2ccccc2N(Cc2ccccc2)S(=O)(=O)c2ccccc2)CC1,> 80 µM (inactive)
17,CCOc1cc(/C=N\Nc2nc(Nc3ccccc3)nc(N3CCOCC3)n2)ccc1OC(=O)c1ccco1,> 80 µM (inactive)
18,CC(C)CN(C(=O)COC(=O)C12CC3CC(CC(C3)C1)C2)c1c(N)n(Cc2ccccc2)c(=O)[nH]c1=O,13.4 µM
19,O=C(NNC(=O)C12CC3CC(CC(C3)C1)C2)c1cccc(O)c1,> 80 µM (inactive)
20,CCN1CCN(C(=O)CSc2cc(=O)n(CC)c3ccccc23)CC1,> 80 µM (inactive)
21,CC(=O)Nc1ccc(Nc2nc(-c3sc(NC(C)=O)nc3C)cs2)cc1,8.63 µM
22,CCOc1cc2nc(-c3ccc(OC)c(OC)c3)nc(N3CCOCC3)c2cc1OC,45.8 µM (inactive)
23,Cn1nc(-c2ccc(N3CCOCC3)c(NS(=O)(=O)c3ccccc3)c2)c2ccccc2c1=O,> 80 µM (inactive)

row,SMILES,IC50
1,CCOc1ccc(/C=C2\SC(=S)N(CCC(=O)Nc3ccc(C(=O)O)cc3)C2=O)cc1,> 80 µM (inactive)
2,COc1ccc(C(=O)N/N=C/c2sc(N3CCOCC3)nc2-c2ccccc2)cc1OC,35.5 µM (inactive)
3,CCN1C(=O)c2cccc3c(S(=O)(=O)NCC4CCCO4)ccc1c23 (stereo unspecified),> 80 µM (inactive)
4,CCOc1ccc(-c2cc(CCCC(=O)NCCCOC)no2)cc1,> 80 µM (inactive)
5,Cc1ccc(-c2nc(C(=O)NCC3CCCO3)cc3c2[nH]c2ccccc23)cc1 (stereo unspecified),23.4 µM (inactive)
6,COc1cc(NC(=O)c2cc3c(C)nc4ccccc4c3o2)cc(OC)c1OC,> 80 µM (inactive)
7,COc1ccc(OC)c(NC(=O)c2[nH]c(C)c(C(C)=O)c2C)c1,> 80 µM (inactive)
8,Cc1cc(C)cc(N2C(=O)NC(=O)/C(=C\c3cccn3-c3ccccc3)C2=O)c1,16.4 µM
9,COc1ccc(/C=N/OCC(=O)NC(c2ccccc2)c2ccccc2)cc1OC,> 80 µM (inactive)
10,CCCCCCn1c(-c2ccco2)nc2oc3cc(OC)ccc3c(=O)c2c1=O,> 80 µM (inactive)
11,O=C(Oc1cccc(/C=N/Nc2nc(N3CCOCC3)nc(N3CCOCC3)n2)c1)c1ccco1,> 80 µM (inactive)
12,Cc1ccc(/C=C2\SC(=S)N(CCCC(=O)Nc3cccnc3)C2=O)cc1,6.11 µM
13,Cc1ccccc1-c1cc(C(=O)Nc2sc(C(=O)OC(C)C)c(C)c2C#N)c2ccccc2n1,> 80 µM (inactive)
14,CC1=CC(C)(C)Nc2ccc(OC(=O)CN3C(=O)CCC3=O)cc21,1.54 µM
15,Cn1c(=NC(=O)CCl)sc2ccccc21,1.18 µM
16,COC(=O)c1c(-c2ccc(N(C)C)cc2)sc2ccc(OC)cc12,> 80 µM (inactive)
17,CCn1c(CN2CCN(c3ccc(Cl)cc3)CC2)nc2ccccc21,39.9 µM (inactive)
18,CCn1c(=S)[nH]c2cc(S(=O)(=O)N3CCCCC3)ccc21,> 80 µM (inactive)
19,CCOc1ccc(-n2c(SCC(=O)Nc3ccc4c(c3)OCCO4)nc3c(c2=O)SCC3)cc1,> 80 µM (inactive)
20,CCN(CC)c1ccc(/C=N/N=C(c2ccccc2)c2ccccc2)c(O)c1,> 80 µM (inactive)
21,CCOC(=O)c1sc(NC(=O)c2cc(-c3ccccc3C)nc3ccccc23)c(C#N)c1C,> 80 µM (inactive)
22,CCc1ccc(/C=C2\SC(=S)N(CCC(=O)NC3=NCCS3)C2=O)cc1,1.3 µM
23,CCOc1ccc(-c2c[n+]3c(n2-c2ccccc2)CCCCC3)cc1,> 80 µM (inactive)

row,SMILES,IC50
1,C=C(C)[C@@H]1CCC2(C(=O)O)CC[C@]3(C)[C@H](CC[C@@H]4[C@@]5(C)CCC(=O)C(C)(C)[C@@H]5CC[C@]43C)[C@@H]12 (stereo partly specified),> 80 µM (inactive)
2,CC1CN(S(=O)(=O)c2ccc(C(=O)Nc3nc(-c4cc5ccccc5o4)cs3)cc2)CC(C)O1 (stereo unspecified),49.9 µM (inactive)
3,CCOc1ccc(-n2c(-c3ccccc3)c[n+]3c2CCCCC3)cc1,> 80 µM (inactive)
4,CCC(CO)Oc1cc(NCc2ccccc2O)c2ncn(C(C)C)c2c1 (stereo unspecified),> 80 µM (inactive)
5,Cc1ccc(Nc2nc(N/N=C\c3ccc4c(c3)OCO4)nc(N3CCOCC3)n2)cc1,70.3 µM (inactive)
6,CCn1c(=O)cc(SCC(=O)N2CCC3(CC2)OCCO3)c2ccccc21,> 80 µM (inactive)
7,COc1ccc2nc(Sc3c([N+](=O)[O-])nc(C)n3Cc3ccccc3)[nH]c2c1,12.2 µM
8,Nc1ccc(-c2cc3ccccc3oc2=O)cc1,0.24 µM
9,COc1ccc(-c2nn(C)c(=O)c3ccccc23)cc1NS(C)(=O)=O,> 80 µM (inactive)
10,CCN1C(=O)c2cccc3c(NC(=O)c4cccc(N5C(=O)CCC5=O)c4)ccc1c23,> 80 µM (inactive)
11,CSc1ccc(-c2nc(CSCC(=O)NC3CC3)c(C)o2)cc1,> 80 µM (inactive)
12,CCn1c(=O)cc(OCC(=O)N(C)C2CCCCC2)c2ccccc21,> 80 µM (inactive)
13,CCOc1ccc(-c2cc(CCCC(=O)NCc3ccco3)no2)cc1,> 80 µM (inactive)
14,Cc1[nH]c2ccccc2c1C(=O)CN1C(=O)NC2(CC(C)CC(C)(C)C2)C1=O (stereo unspecified),52.7 µM (inactive)
15,COc1ccc(CC(=O)Nc2cccc(-c3ccc4nnc(C)n4n3)c2)cc1,> 80 µM (inactive)
16,Cc1ccc(Nc2nc(N3CCOCC3)nc(N3CCOCC3)n2)cc1C,> 80 µM (inactive)
17,CN1C(=O)CC(c2ccco2)Sc2ccccc21 (stereo unspecified),> 80 µM (inactive)
18,CC(C)(C)c1ccc(-n2ncc3c2CCCC3NC(=O)C2(C(N)=O)CC2)cc1 (stereo unspecified),> 80 µM (inactive)
19,COc1ccc(/C=C2\SC(=S)N(CCC(=O)Nc3cccc(O)c3)C2=O)cc1,> 80 µM (inactive)
20,COCCNC(=O)CSCc1nc(-c2ccc(SC)cc2)oc1C,> 80 µM (inactive)
21,O=C(Nc1ccccc1C(=O)Nc1nnc(C(F)(F)F)s1)c1ccccc1,> 80 µM (inactive)
22,COc1ccc(OC)c(C2CC(=O)Nc3cc(OC)c(OC)c(OC)c32)c1 (stereo unspecified),> 80 µM (inactive)
23,CN1C(=O)CSc2ccc(NC(=O)N3CCN(c4ccccc4)CC3)cc21,> 80 µM (inactive)

row,SMILES,IC50
1,Cc1cc(C)c2nc(NC(=O)C3CSC4(C)CCC(=O)N34)sc2c1 (stereo unspecified),76.5 µM (inactive)
2,CCN1C(=O)c2cccc3c(S(=O)(=O)N4CCC(C)CC4)ccc1c23,> 80 µM (inactive)
3,Nc1ccccc1SCC(=O)Nc1nc(-c2ccccc2)cs1,> 80 µM (inactive)
4,COc1ccc(NC(=S)NCc2ccccc2)c(OC)c1,> 80 µM (inactive)
5,C[C@H]1CCC/C=C/C2C[C@H](O)CC2[C@H](O)/C=C/C(=O)O1 (stereo partly specified),> 80 µM (inactive)
6,N=c1ccn(Cc2c(Cl)cccc2Cl)cc1,> 80 µM (inactive)
7,CCC(C)NC(=O)c1c(N)n(/N=C/c2ccccn2)c2nc3ccccc3nc12 (stereo unspecified),22.7 µM (inactive)
8,CCN(C(=O)CN1C(=O)NC(c2ccccc2)(c2ccc(C)c(C)c2)C1=O)C1CCCCC1 (stereo unspecified),38.9 µM (inactive)
9,Cc1cc(C)c2nc(NC(=O)[C@@H](NC(=O)c3cccc(S(=O)(=O)N4CCOCC4)c3)C(C)C)sc2c1,20.8 µM (inactive)
10,Cc1nc2cc(-c3ccc(Cl)cc3)nn2c(C)c1CCC(=O)NC(C)c1ccc2c(c1)OCCO2 (stereo unspecified),0.7 µM
11,CCc1ccc(-c2nc(CSCC(=O)NC3CC3)c(C)o2)cc1,38.5 µM (inactive)
12,CN1C(=O)c2cccc3c(S(=O)(=O)Nc4ccccc4F)ccc1c23,35.8 µM (inactive)
13,COc1ccc(-c2csc3nc(-c4cccnc4)nc(N4CCC(C(N)=O)CC4)c23)cc1OC,12.1 µM
14,COc1ccc(Cc2nc(-c3ccc(NC(=O)c4cccnc4)cc3)no2)cc1,> 80 µM (inactive)
15,Cc1ccoc1C(=O)Nc1ccc(CC(=O)O)cc1,0.26 µM
16,COc1ccc(/C=C\C(=O)O[C@@H]2C(O)C(O[C@@H]3OC(C)[C@H](O[C@@H]4OCC(O[C@H]5O[C@H](CO)[C@@H](O)C(O)C5O)C(O)C4O)C(O)C3O)[C@H](OC(=O)[C@]34CCC(C)(C)C[C@@H]3C3=CCC5[C@@]6(C)CC(O)C(O[C@@H]7OC(CO)C(O)[C@H](O)[C@H]7O)[C@@](C)(C(=O)O)C6CC[C@@]5(C)[C@]3(CO)CC4)O[C@H]2C)cc1 (stereo partly specified),2.88 µM
17,Cc1ccc(C(=O)CSc2nnc(COc3cc(C)cc(C)c3)o2)cc1,> 80 µM (inactive)
18,CCOc1ccc(NC(=O)CCCc2cc(-c3ccc(OCC)cc3)on2)cc1,> 80 µM (inactive)
19,Cn1c(=O)n(C)c2cc(NC(=O)CSc3nnc(-c4ccccc4O)n3-c3ccccc3)ccc21,50.1 µM (inactive)
20,Cn1c(=O)cc(SCC(=O)N2CCCC2)c2cc(Cl)ccc21,> 80 µM (inactive)
21,Cc1ccc(-c2nn3c(C)nnc3c3ccccc23)cc1S(=O)(=O)N1CCN(CCO)CC1,43.4 µM (inactive)
22,CC1CC(C)(C)Nc2ccc(OC(=O)c3ccco3)cc21 (stereo unspecified),3.18 µM
